# Assays:
# NHE-2 isoform = target: T1, NHE-2 isoform (Homo sapiens, UniProt Q9UBY0); conditions: cited from earlier work
# T1 sequence (Q9UBY0 1-812): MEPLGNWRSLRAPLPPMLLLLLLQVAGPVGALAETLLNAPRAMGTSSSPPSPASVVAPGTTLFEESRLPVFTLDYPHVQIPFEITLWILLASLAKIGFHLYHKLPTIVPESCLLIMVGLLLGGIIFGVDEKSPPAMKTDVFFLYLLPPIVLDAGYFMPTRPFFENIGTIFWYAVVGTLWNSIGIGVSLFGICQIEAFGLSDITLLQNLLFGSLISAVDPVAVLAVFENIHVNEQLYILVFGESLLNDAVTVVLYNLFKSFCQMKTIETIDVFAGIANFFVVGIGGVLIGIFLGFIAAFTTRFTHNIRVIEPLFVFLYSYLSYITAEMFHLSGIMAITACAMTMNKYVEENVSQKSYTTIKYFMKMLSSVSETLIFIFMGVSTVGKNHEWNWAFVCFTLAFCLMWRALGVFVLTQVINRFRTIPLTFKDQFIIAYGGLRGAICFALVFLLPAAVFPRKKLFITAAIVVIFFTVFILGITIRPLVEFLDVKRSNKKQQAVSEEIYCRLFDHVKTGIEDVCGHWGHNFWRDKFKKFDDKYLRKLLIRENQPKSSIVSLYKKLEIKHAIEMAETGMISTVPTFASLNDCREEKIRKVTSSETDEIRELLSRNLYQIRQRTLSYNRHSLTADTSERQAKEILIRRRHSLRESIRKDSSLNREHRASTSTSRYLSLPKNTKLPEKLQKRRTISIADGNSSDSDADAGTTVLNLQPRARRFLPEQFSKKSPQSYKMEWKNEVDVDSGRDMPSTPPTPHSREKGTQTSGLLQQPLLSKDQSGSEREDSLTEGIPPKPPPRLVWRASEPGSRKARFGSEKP
# NHE5 = target: T2, NHE5 (Homo sapiens, UniProt Q14940); conditions: cited from earlier work
# T2 sequence (Q14940 1-896): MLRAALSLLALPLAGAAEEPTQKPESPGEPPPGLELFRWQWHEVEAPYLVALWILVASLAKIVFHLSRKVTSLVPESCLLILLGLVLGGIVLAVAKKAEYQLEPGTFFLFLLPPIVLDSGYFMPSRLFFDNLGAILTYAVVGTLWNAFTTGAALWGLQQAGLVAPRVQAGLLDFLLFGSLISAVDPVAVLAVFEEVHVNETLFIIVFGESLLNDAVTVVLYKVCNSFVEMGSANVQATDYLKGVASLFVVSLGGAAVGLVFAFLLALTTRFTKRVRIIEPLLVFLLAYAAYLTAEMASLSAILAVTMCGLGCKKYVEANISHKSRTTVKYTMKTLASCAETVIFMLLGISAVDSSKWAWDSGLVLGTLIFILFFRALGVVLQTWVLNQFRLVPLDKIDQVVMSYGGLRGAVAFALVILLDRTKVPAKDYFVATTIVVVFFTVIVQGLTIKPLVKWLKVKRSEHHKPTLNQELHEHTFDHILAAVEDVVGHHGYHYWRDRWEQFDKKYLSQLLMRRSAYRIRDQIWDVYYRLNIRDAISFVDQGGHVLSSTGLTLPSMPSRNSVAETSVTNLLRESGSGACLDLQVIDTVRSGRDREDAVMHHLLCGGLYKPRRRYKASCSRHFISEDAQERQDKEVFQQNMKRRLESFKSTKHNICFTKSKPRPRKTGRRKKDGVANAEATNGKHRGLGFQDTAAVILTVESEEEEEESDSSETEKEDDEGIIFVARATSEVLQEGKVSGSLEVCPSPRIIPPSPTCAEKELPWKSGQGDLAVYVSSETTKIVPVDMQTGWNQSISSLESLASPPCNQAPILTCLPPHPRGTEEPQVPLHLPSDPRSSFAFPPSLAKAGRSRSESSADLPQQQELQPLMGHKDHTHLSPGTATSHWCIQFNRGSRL
# NHE-3 = NHE-3 (Homo sapiens, UniProt P48764); conditions: cited from earlier work
# NHE-3, sequence (P48764 26-834, species assumed): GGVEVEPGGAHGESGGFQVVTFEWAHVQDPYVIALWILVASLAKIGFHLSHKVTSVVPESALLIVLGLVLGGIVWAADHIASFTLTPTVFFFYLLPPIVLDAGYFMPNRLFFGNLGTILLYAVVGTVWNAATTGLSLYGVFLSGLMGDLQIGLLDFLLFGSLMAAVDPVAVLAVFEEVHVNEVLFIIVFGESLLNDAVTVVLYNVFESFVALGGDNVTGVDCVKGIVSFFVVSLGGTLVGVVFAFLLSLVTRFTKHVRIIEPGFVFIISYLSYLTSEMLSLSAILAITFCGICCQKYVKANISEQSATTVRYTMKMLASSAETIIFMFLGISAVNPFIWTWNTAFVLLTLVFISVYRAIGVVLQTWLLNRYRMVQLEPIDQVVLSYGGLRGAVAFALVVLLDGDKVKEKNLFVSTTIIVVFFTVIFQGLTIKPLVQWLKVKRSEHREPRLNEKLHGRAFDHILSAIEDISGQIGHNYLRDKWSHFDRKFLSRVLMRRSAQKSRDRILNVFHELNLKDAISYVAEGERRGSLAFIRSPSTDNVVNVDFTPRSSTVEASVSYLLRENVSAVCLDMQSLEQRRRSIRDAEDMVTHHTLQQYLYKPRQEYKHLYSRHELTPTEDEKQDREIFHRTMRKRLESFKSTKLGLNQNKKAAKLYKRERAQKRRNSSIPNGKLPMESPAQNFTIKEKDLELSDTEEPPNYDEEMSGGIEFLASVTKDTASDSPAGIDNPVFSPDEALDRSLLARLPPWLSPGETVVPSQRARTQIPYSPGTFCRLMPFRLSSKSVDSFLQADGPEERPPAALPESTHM
# ApoE receptors (Apoer2) = assay: recycling of ApoE receptors in the presence of ApoE4 / ApoE3; format: cell-based
smiles,measurement,setting,value
CS(=O)(=O)O.CS(=O)(=O)c1cc(C(=O)N=C(N)N)ccc1N1CCCCC1 [HOE 694],NHE-2 isoform selectivity,NHE-2 isoform,relatively selective
"CN1Cc2c(Cl)cc(Cl)cc2C(c2ccc(S(=O)(=O)N=C(N)N)cc2)C1 (stereo not shown) [N-diaminomethylene-4-(6,8-dichloro-2-methyl-1,2,3,4-tetrahydroisoquinolin-4-yl)benzenesulfonamide]",NHE5 selectivity,NHE5,NHE5 selective
"CC(=Cc1cc(C)ccc1C=C(C)C(=O)NC(=N)N)C(=O)N=C(C)C.Cl.Cl [S3226, 3-[2-(3-guanidino-2-methyl-3-oxo-propenyl)-5-methyl-phenyl]-N-isopropylidene-2-methyl-acrylamide dihydro-chloride]",NHE-3 potency and specificity,NHE-3,relatively potent and specific
COc1ccc2c3c([nH]c2c1)C(C)=NCC3 [hamaline],NHE5 selectivity,NHE5,NHE5 selective
CC(C)NCC(O)c1ccc(O)c(O)c1 (stereo not shown) [isoproterenol],ApoE receptor recycling,"ApoE receptors (Apoer2); activation of beta-adrenergic receptors, in the presence or absence of IBMX",restores normal ApoE receptor recycling
COc1ccc(C2CNC(=O)C2)cc1OC1CCCC1 (stereo not shown) [rolipram],effect on altering the recycling properties of Apoer2,ApoE receptors (Apoer2); in the presence of ApoE3,negligible effect
same,recycling deficit induced by ApoE4,ApoE receptors (Apoer2); in the presence of ApoE4,completely normalizes

# From patent US8530516B2, “Promoting cycling of ApoE4 isoform” (Board of Regents, The University of Texas System, priority 2009, dated 2013)
